In the assay the target is T1, human LFA-1 (Homo sapiens, UniProt P20701).
T1 construct: endogenous in cells; host or cells: JY cells (human lymphoblastoid B cell line); The ICAM-1 fusion partner is made in the baculovirus system
Put plainly: In vitro cell free assay: binding of soluble human ICAM-1 to immobilized human LFA-1. The conditions noted are these: immobilized human LFA-1, biotinylated recombinant ICAM-1, read-out: IC50, inhibition of adhesion of LFA-1 to ICAM-1. How it is done:
A. In Vitro TEST SYSTEM (Cell Free Assay)
The assay determines the binding of soluble human ICAM-1 to immobilized human LFA-1. LFA-1 is purified from JY cells, a human lymphoblastoid B cell-line, by immunoaffinity chromatography analogously as described by Dustin et al., J. Immunol. 148, 2654-2663, 1992. ICAM-1 mouse Cκ fusion protein (ICAM-1) is produced using the baculovirus system as described by Weitz-Schmidt et al., Anal. Biochem. 238, 184-190, 1996.
Purified LFA-1 is diluted 1:20 in phosphate buffered saline (PBS) containing 2 mM MgCl2, pH 7.4 and coated onto microtiter plates (Nunc) at 37° for 3 hours. Plates are blocked with 1% heat-treated bovine serum albumin in PBS for 2 hours at 37° followed by a washing step using PBS, 2 mM MgCl2, 1% fetal calf serum, pH 7.4 (assay buffer). Compounds of the present invention (10 mM solution in DMSO) are diluted in assay buffer and added to the plates. Biotinylated recombinant ICAM-1 in assay buffer (6 μg/ml) is added and allowed to bind at 37° for one hour. After incubation, wells are washed with assay buffer. Streptavidinperoxidase diluted 1:5000 in assay buffer is added and incubated for 45 min at 37°. […] The reaction is stopped after 20 minutes and bound ICAM-1 is determined by measuring the optical density at 405 nm in a microplate reader.

T1 sequence (P20701 26-1170): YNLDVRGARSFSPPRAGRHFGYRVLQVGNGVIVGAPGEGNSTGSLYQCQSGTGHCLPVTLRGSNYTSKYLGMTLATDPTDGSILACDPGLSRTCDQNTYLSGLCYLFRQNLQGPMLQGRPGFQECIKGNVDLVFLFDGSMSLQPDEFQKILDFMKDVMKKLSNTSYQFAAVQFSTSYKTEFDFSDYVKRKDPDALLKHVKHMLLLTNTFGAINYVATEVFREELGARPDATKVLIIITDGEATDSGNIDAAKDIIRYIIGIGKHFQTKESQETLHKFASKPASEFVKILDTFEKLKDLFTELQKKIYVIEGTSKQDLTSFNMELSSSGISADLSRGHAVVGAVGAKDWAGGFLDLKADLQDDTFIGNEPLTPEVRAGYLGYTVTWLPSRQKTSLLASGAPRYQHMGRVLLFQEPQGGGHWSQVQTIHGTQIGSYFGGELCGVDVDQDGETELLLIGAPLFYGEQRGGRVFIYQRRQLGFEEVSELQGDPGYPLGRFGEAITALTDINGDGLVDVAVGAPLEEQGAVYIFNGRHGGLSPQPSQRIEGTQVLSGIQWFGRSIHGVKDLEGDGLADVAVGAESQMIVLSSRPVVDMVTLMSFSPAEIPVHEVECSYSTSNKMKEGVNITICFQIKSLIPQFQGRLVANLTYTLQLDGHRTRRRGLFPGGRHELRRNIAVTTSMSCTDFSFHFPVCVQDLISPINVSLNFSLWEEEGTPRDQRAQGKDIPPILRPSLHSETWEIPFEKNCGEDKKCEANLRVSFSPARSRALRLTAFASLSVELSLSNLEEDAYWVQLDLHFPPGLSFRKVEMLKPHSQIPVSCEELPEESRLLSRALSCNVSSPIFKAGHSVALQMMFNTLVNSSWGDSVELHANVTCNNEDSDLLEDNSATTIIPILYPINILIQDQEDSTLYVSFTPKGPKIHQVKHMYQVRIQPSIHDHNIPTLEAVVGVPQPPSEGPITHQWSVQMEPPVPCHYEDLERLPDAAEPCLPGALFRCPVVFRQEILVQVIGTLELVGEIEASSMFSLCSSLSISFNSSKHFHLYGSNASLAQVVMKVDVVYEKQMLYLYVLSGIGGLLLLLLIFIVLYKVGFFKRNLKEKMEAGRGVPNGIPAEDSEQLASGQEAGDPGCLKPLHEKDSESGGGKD
T1 sequence (P05107 23-769 partner): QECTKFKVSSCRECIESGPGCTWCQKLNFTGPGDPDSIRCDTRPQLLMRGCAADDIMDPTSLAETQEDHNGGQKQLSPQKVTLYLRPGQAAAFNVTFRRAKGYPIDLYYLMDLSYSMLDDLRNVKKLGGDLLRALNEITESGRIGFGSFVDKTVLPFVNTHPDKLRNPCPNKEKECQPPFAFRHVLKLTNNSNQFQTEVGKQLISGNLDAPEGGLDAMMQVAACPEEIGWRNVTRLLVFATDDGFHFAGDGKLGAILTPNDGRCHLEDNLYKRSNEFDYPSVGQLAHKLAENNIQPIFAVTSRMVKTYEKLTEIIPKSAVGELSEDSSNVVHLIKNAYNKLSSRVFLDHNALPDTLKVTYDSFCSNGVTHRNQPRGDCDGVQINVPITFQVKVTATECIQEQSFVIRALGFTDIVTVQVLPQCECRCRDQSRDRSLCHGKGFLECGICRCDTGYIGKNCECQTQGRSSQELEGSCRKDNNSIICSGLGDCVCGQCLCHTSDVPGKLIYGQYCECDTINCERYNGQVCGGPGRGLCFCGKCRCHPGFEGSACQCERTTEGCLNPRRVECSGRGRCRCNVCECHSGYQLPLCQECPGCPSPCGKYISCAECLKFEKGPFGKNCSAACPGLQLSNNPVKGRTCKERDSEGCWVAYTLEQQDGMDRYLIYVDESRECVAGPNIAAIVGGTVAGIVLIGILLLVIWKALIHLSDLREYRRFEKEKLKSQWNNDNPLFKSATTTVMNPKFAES

Broadly, the IC50 is the midpoint of a concentration-inhibition curve. `C[C@@H]1CCN([C@H](Cc2cccc3ccccc23)C(N)=O)C(=O)[C@H](c2cccc(Cl)c2)N1C(=O)CNC(=O)c1ccccc1` [Example 13, N-{2-[(2S,7R)-4-((R)-1-Carbamoyl-2-naphthalen-1-yl-ethyl)-2-(3-chloro-phenyl)-7-methyl-3-oxo-[1,4]diazepan-1-yl]-2-oxo-ethyl}-benzamide]: the concentration for half-maximal inhibition (IC50) came out at 430 nM.
In the case of `C[C@@H]1CCN([C@H](Cc2cccc3ccccc23)C(N)=O)C(=O)[C@H](c2cccc(Cl)c2)N1C(=O)CNC(=O)[C@@H]1CCCN1` [Example 14, (S)-Pyrrolidine-2-carboxylic acid {2-[(2S,7R)-4-((R)-1-carbamoyl-2-naphthalen-1-yl-ethyl)-2-(3-chloro-phenyl)-7-methyl-3-oxo-[1,4]diazepan-1-yl]-2-oxo-ethyl}-amide], the half-inhibitory concentration (IC50) was 90 nM.

The values are drawn from patent publication US20080300237A1, “Pharmaceutically Active Diazepanes” (priority 2005, published 2008).
